Data reported in patent publication US12534451B2, “Small molecule modulators of PanK” (St. Jude Children's Research Hospital, priority 2019, dated 2026).

Legend:
[1] = molecular target: human PANK3 (Homo sapiens (Human), UniProt Q9H999); assay: PANK activity assay (radiochemical, D-[1-14C]pantothenate); assay type: biochemical; settings: 5 nM human PANK3, 2.5 mM ATP, 45 μM pantothenate, 10 min at 37° C.; average ± data range
Experimental: The PanK activity and Surface Plasmon Resonance assays were conducted as explained in the literature.
If the IC^50 was determined to be in the nM range then the assay was repeated in the presence of 0-1 μM or 0-0.1 μM compound to more precisely determine the IC^50. All the experiments were repeated twice in duplicate and the data were an average ±data range.
The experiments mimicking the mixture of ligands present in vivo were performed under different conditions. […] The IC^50 values for the structure-activity study were calculated by fitting the inhibition data to a one-site model of the Michaelis-Menten equation. […] Thus, the data were fit to Morrison's quadratic equation (GraphPad software) that accounts for the impact of enzyme inhibitor binding on the free concentration of inhibitor.

[2] = tested on: Human C3A [HepG2/C3A] cells; assay: Cellular total CoA determination in C3A cells; assay type: cell-based; settings: 24 hrs of treatment
Experimental: Human C3A [HepG2/C3A, derivative of HepG2] cells (ATCC #CRL-10741) were purchased from ATCC® and maintained in Eagle's minimum Essential medium (ATCC) supplemented with 2 mM glutamine, 10% fetal bovine serum (FCS, Altanta Biologicals), 50 U/ml penicillin and […] streptomycin. The C3A cell line was confirmed to be mycoplasma-free. Test compounds or vehicle control (DMSO) was added and after 24 hrs of treatment the cells were washed with PBS and harvested and subjected to total CoA determination.
Cultured cells were resuspended in 2 ml cold water to which 500 μl of 0.25M KOH was added, derivatized with monobromobimane (mBBr, Life technologies) and quantified by HPLC. 30 mg of frozen tissue is homogenized in 2 ml of 1 mM KOH and then derivatized with mBBr. The mBBr derivatized samples were fractionated by reverse-phase HPLC using a Gemini C18 3 μm column (150×4.60 mm) from Phenomenex. The chromatography system was a Waters e2695 separation module with a UV/Vis and fluorescence detector and controlled by Empower 3 software. Solvent A was 50 mM potassium phosphate pH 4.6, and solvent B was 100% acetonitrile. Twenty microliters of sample was injected onto the column, and the flow rate was 0.5 ml/min. The HPLC program was the following: starting solvent mixture of 90% A/10% B, 0-2 min isocratic with 10% B, 2-6 min linear gradient from 10% B to 15% B, 6-18 min concave gradient from 15% B to 40% B, 18-23 min isocratic with 40% B, 23-25 min linear gradient from 40 to 10%, and 25-30 min isocratic with 10% B. The UV/vis detector was set at 393 nm, and the fluorescence detector was set with excitation at 393 nm and emission at 470 nm. The elution position of the mBBr-CoA, was determined by comparison with mBBr-CoA prepared from commercial CoA (Avanti Polar Lipids). The areas under the mBBr-derivatized CoA was integrated and compared to known concentrations of the mBBr-CoA standard.

human PANK3, sequence (Q9H999 whole entry): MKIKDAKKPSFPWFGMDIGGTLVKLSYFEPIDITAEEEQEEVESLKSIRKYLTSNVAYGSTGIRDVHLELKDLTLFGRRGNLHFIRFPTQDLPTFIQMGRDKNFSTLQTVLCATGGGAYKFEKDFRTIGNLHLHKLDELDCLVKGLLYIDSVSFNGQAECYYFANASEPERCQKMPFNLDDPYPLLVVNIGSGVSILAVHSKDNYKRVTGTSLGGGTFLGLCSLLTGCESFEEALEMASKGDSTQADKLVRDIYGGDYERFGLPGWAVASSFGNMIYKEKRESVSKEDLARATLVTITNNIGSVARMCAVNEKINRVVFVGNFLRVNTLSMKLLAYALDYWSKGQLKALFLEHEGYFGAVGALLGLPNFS

Compound	IC50 [1] [nM]	C3A CoA% elevation [2] [%]
CS(=O)(=O)Nc1ccc(CC(=O)N2CCN(c3ccc(Cl)nn3)CC2)cc1 [PZ-4140, N-(4-(2-(4-(6-chloropyridazin-3-yl)piperazin-1-yl)-2-oxoethyl)phenyl)methanesulfonamide]	3.8 ± 0.1	64.4
O=C(Cc1ccc(C2CC2)cc1)N1CCN(c2nc3ccc(F)cc3s2)CC1 [PZ-4300]	3.9 ± 0.3	242.5
CS(=O)(=O)Nc1ccc(CC(=O)N2CCN(c3nc4c(F)cc(F)cc4s3)CC2)cc1 [PZ-4324]	1.3 ± 0.06	104.3
O=C(Cc1ccc(C2CC2)cc1)N1CCN(c2nc3ccc(F)cc3o2)CC1 [PZ-4304]	14.3 ± 0.6	167
O=C(Cc1ccc(C2CC2)cc1)N1CCN(c2nc3ncccc3o2)CC1 [PZ-4314]	2.9 ± 0.1	275
CN(C)c1ccc(CC(=O)N2CCN(c3nc4ncccc4s3)CC2)cc1 [PZ-4316]	5 ± 0.5	183.4
O=C(Cc1ccc(C2CC2)cc1)N1CCN(c2nc3ccccc3s2)CC1 [PZ-4285]	26 ± 3	223.7
N#Cc1cnc(N2CCN(C(=O)Cc3ccc(C4CC4)cc3)CC2)cn1 [PZ-4284]	27 ± 4	448.2
CCS(=O)(=O)Nc1ccc(CC(=O)N2CCN(c3ccc(C#N)nn3)CC2)cc1 [PZ-4215]	4 ± 0.3	160.9
O=C(Cc1ccc(C2CC2)cc1)N1CCN(c2nc3c(F)cc(F)cc3s2)CC1 [PZ-4291]	2.1 ± 0.1	238.4
O=C(Cc1ccc(C2CC2)cc1)N1CCN(c2nc3cc(F)ccc3s2)CC1 [PZ-4306]	5.4 ± 0.4	238.6
CN(C)c1ccc(CC(=O)N2CCN(c3nc4c(F)cc(F)cc4s3)CC2)cc1 [Lee-4296]	25 ± 1.6	198.6
O=C(Cc1ccc(C2CC2)cc1)N1CCN(c2nc3ncccc3s2)CC1 [PZ-4298]	1 ± 0.1	60.1
